Broadly, the IC50 is the midpoint of a concentration-inhibition curve. What is called inhibition is how much of the control response was suppressed. Low values mean little suppression, high ones strong suppression.

The results in this text go back to ChEMBL document CHEMBL3098040, “Design and Discovery of 2-Arylquinazolin-4-ones as Potent and Selective Inhibitors of Tankyrases” (ACS Med Chem Lett, 2013).

Assay [1] deals with Poly [ADP-ribose] polymerase 1 (Homo sapiens, UniProt P09874). In words: Inhibition of PARP1 (unknown origin) after 1 hr by spectrophotometry.
Sequence of Poly [ADP-ribose] polymerase 1 (P09874 whole entry): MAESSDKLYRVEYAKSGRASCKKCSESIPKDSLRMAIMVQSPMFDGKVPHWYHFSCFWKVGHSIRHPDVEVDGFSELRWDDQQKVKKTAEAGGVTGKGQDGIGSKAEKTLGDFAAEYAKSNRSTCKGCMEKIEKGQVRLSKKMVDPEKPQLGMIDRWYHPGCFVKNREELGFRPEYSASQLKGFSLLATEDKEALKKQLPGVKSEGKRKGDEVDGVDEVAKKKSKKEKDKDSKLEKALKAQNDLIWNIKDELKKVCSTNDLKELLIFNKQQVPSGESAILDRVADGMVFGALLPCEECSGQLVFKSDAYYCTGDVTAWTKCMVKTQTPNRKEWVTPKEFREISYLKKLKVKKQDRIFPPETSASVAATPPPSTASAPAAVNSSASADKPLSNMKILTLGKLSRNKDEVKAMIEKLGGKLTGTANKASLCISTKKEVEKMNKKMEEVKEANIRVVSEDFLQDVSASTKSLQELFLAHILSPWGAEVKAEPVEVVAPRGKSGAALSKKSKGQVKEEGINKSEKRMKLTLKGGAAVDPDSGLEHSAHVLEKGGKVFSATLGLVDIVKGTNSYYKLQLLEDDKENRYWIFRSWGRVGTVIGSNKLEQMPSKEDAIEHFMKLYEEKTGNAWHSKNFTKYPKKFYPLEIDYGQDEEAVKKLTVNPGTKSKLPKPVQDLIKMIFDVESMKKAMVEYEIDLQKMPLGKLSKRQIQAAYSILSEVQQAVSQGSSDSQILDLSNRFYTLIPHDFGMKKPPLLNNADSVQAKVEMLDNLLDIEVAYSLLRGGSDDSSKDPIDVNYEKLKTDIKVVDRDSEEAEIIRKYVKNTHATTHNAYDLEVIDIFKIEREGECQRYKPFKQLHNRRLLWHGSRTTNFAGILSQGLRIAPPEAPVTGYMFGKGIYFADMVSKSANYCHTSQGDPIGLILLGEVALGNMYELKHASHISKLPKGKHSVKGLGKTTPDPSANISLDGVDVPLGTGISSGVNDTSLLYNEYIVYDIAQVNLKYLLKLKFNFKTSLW
The target of assay [2] is Inosine-5'-monophosphate dehydrogenase 2 (Homo sapiens, UniProt P12268). Briefly: Inhibition of human recombinant IMPDH2 by spectrophotometry.
The target in assay [3] is T1, Poly [ADP-ribose] polymerase tankyrase-1 (Homo sapiens, UniProt O95271).
T1 sequence (O95271 whole entry): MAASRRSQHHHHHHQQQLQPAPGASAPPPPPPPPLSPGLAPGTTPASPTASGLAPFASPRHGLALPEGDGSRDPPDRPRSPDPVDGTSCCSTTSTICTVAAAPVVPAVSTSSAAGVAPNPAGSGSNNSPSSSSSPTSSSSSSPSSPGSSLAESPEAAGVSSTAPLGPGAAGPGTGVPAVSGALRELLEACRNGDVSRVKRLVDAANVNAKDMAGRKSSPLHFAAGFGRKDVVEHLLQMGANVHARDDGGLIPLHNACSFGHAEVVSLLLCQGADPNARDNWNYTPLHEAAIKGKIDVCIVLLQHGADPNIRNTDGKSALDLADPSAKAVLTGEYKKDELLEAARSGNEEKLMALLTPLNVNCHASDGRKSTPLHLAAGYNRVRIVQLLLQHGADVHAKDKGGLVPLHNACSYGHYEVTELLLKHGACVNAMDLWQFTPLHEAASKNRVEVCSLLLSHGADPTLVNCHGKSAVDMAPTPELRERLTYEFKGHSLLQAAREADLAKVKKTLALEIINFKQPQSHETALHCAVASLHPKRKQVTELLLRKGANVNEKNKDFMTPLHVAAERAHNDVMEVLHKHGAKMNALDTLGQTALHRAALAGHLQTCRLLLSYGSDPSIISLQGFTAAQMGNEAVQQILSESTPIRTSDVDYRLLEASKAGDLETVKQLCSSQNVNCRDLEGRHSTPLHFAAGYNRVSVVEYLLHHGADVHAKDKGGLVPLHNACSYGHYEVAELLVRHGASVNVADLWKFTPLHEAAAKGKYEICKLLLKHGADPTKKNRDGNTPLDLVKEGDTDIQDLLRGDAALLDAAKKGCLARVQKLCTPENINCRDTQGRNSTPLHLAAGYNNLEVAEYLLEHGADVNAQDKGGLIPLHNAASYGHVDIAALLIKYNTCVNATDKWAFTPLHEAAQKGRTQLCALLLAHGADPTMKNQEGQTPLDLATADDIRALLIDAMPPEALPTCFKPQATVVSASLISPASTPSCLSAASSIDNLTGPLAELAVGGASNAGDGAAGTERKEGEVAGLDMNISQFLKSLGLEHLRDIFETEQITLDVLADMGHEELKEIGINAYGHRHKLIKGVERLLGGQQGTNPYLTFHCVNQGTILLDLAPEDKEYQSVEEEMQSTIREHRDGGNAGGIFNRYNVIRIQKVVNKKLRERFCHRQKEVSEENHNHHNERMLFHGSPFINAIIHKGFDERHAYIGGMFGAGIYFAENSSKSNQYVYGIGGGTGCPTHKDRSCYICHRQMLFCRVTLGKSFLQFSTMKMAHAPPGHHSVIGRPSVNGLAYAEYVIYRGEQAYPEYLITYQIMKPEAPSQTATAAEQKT
Briefly: Inhibition of human tankyrase1 after 30 mins by spectrophotometry.

For assay [4], the target named is T2, Poly [ADP-ribose] polymerase tankyrase-2 (Homo sapiens, UniProt Q9H2K2).
T2 sequence (Q9H2K2 whole entry): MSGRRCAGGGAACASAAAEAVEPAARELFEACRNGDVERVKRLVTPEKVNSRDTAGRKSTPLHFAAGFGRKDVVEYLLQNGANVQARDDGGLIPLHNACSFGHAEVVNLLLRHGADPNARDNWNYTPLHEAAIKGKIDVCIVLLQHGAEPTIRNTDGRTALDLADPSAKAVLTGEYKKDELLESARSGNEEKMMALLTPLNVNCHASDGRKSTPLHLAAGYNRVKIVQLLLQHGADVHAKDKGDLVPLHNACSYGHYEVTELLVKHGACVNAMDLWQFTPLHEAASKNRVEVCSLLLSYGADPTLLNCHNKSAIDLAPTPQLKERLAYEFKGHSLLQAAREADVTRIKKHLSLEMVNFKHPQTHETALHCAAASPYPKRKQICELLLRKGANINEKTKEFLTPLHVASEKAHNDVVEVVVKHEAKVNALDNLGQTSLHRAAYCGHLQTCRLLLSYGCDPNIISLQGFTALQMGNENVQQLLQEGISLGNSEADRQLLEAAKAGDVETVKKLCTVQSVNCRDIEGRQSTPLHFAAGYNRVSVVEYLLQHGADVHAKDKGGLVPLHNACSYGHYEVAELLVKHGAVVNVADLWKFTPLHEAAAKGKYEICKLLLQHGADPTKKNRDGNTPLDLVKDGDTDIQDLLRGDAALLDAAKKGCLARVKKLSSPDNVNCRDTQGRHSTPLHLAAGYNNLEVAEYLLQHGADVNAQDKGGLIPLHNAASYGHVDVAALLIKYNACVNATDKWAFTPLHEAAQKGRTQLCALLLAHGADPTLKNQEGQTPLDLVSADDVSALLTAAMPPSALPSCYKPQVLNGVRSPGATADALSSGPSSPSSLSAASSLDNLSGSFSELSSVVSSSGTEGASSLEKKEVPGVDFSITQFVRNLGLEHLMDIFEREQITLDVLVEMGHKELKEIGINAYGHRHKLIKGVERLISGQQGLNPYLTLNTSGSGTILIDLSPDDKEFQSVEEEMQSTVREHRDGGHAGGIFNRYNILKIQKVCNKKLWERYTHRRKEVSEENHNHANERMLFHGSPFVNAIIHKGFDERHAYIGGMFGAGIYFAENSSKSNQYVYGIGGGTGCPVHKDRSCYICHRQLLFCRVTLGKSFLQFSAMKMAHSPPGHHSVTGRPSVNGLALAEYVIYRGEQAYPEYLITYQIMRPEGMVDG
Briefly: Inhibition of human tankyrase2 after 2 hrs by spectrophotometry.

Assay [5] deals with T3, Poly [ADP-ribose] polymerase tankyrase-2 (Homo sapiens) (UniProt Q9H2K2).
T3 sequence (whole entry): T2 sequence (Q9H2K2 whole entry)
Briefly: Inhibition of human tankyrase2 at 10 nM after 2 hrs by spectrophotometry.

Assay [6] is filed under the species Homo sapiens. In words: Selectivity ratio of IC50 for PARP1 (unknown origin) to IC50 for human tankyrase1.
Assay [7] is filed under the species Homo sapiens. In words: Selectivity ratio of IC50 for PARP1 (unknown origin) to IC50 for human tankyrase2.

On to `Cc1cccc2c(=O)[nH]c(-c3ccccc3)nc12`, for which the IC50 in assay [1] is 795 nM; in assay [2], greater than 10000 nM; in assay [3] it was 42 nM; in assay [4], 41 nM.
In the same order, the values of `Cc1ccc(-c2nc3c(C)cccc3c(=O)[nH]2)cc1` are 685 nM, greater than 10000 nM, 35 nM and 6.7 nM.
In assay [5], `O=c1[nH]c(-c2ccc(Cl)cc2)nc2c(O)cccc12` returned an inhibition of 32%.
With `Cc1cccc2c(=O)[nH]c(-c3ccc(F)cc3)nc12`, the IC50 is greater than 5000 nM in assay [1], greater than 10000 nM in assay [2], 44 nM in assay [3] and 40 nM in assay [4].
For `Cc1cccc2c(=O)[nH]c(-c3ccc(Br)cc3)nc12`, the IC50 in assay [1] is greater than 5000 nM; in assay [2], greater than 10000 nM; in assay [3], 32 nM; in assay [4], 5.5 nM. Also, the Ratio IC50 in assay [6] is greater than 150; in assay [7], greater than 830.
With `Cc1cccc2c(O)nc(-c3ccc([N+](=O)[O-])cc3)nc12`, the IC50 was greater than 10000 nM in assay [2], 32 nM in assay [3] and 30 nM in assay [4].
`Cc1cccc2c(=O)[nH]c(-c3ccc(CNC(=O)OCc4ccccc4)cc3)nc12`: the IC50 was greater than 5000 nM in assay [1], greater than 10000 nM in assay [2], 73 nM in assay [3] and 44 nM in assay [4]. The Ratio IC50 was greater than 70 in assay [6] and greater than 110 in assay [7].
With `O=c1[nH]c(-c2ccc([N+](=O)[O-])cc2)nc2ccccc12`, in assay [5], the inhibition is 2%.
For the molecule `COc1ccc(-c2nc3c(C)cccc3c(=O)[nH]2)cc1`, the IC50 in assay [1] is 891 nM; in assay [2], greater than 10000 nM; in assay [3], 37 nM; in assay [4], 12 nM.
With `Cc1cccc2c(O)nc(-c3ccc(O)cc3)nc12`, the Ratio IC50 in assay [6] was determined as 23; in assay [7] it was 240.
Take `Oc1nc(-c2ccc(C(F)(F)F)cc2)nc2c1CSCC2`: in assay [2], the IC50 was greater than 10000 nM.
Turning to `Cc1cccc2c(=O)[nH]c(-c3ccc(Cl)cc3)nc12`, the IC50 is greater than 5000 nM in assay [1], greater than 10000 nM in assay [2], 36 nM in assay [3] and 33 nM in assay [4]. In assay [5], this molecule displayed an inhibition of 49%.
In the case of `COc1cccc2c(=O)[nH]c(-c3ccc(Cl)cc3)nc12`, the inhibition in assay [5] is 25%.
Consider `Cc1cccc2c(O)nc(-c3ccc(C(F)(F)F)cc3)nc12`, for which the IC50 in assay [1] was greater than 5000 nM; in assay [2], greater than 10000 nM; in assay [3], 48 nM; in assay [4] it was 10 nM. Besides, the figures for the Ratio IC50 in assay [6] and in assay [7] were greater than 100 and greater than 500, respectively.
`Cc1cccc2c(=O)[nH]c(-c3ccc(O)cc3)nc12`: the IC50 in assay [1] is 1200 nM; in assay [2] it was greater than 10000 nM; in assay [3] it was 52 nM; in assay [4], 3 nM.
In the case of `Cc1cccc2c(O)nc(-c3ccc(N)cc3)nc12`, the 50% inhibitory concentration (IC50) is 504 nM in assay [1], greater than 10000 nM in assay [2], 35 nM in assay [3] and 3.3 nM in assay [4]. The Ratio IC50 amounted to 14 in assay [6] and 170 in assay [7].
